What was measured:
Cricetinae gen. sp. [1] = assay: Activity against pregnancy-interceptive activity in Syrian golden hamsters, when administered, at a dose of 26.88 mmol/kg; format: functional
[2] = tested on: Progesterone receptor (Mesocricetus auratus); assay: Percent inhibition of [3H]- progesterone binding to Syrian golden hamster uterine cytosol progesterone receptor, at 10e-5 M compound concentration; settings: at 10 µM
[3] = molecular target: T1, Progesterone receptor (Oryctolagus cuniculus) (UniProt P06186); assay: Percent inhibition of [3H]- progesterone binding to rabbit uterine progesterone receptor, at 10e-6 M compound concentration; settings: at 1 µM
T1 sequence (whole entry): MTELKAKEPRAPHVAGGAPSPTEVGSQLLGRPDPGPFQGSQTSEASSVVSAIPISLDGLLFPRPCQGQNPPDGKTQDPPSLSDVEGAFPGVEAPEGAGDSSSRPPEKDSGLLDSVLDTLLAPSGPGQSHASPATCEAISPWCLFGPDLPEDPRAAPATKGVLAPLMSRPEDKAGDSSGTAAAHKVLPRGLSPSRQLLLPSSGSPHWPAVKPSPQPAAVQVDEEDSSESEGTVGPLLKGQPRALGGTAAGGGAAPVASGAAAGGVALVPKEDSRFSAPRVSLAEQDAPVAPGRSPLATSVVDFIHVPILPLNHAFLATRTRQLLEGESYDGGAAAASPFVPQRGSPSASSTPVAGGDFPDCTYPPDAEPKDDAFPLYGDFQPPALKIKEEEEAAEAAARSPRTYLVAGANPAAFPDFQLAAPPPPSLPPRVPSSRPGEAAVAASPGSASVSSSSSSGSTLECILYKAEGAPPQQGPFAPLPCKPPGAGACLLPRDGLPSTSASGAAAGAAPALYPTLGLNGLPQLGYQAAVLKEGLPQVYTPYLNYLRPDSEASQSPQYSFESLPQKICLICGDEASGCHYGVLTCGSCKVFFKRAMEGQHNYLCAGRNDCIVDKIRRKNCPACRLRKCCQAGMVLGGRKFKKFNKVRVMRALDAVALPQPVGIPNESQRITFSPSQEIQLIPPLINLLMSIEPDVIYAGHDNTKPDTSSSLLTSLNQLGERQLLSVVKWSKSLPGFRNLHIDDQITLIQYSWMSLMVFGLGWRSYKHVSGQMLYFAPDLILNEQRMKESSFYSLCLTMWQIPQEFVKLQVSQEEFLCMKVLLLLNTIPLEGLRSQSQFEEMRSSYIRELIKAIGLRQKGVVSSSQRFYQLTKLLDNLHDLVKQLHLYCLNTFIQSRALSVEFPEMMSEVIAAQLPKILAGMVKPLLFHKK

[4] = tested on: Progesterone receptor (Mesocricetus auratus); assay: Percent inhibition of [3H]- progesterone binding to Syrian golden hamster uterine cytosol progesterone receptor, at 10e-6 M compound concentration; settings: at 1 µM
[5] = molecular target: T1, Progesterone receptor (Oryctolagus cuniculus); assay: Percent inhibition of [3H]- progesterone binding to rabbit uterine progesterone receptor, at 10e-8 M compound concentration; settings: at 0.01 µM
Cricetinae gen. sp. [6] = assay: Activity against pregnancy-interceptive activity in Syrian golden hamsters, when administered, at a dose of 9.54 mmol/kg; format: functional
[7] = tested on: Progesterone receptor (Mesocricetus auratus); assay: Percent inhibition of [3H]- progesterone binding to Syrian golden hamster uterine cytosol progesterone receptor, at 10e-9 M compound concentration; settings: at 0.001 µM
[8] = molecular target: T1, Progesterone receptor (Oryctolagus cuniculus); assay: Percent inhibition of [3H]- progesterone binding to rabbit uterine progesterone receptor, at 10e-7 M compound concentration; settings: at 0.1 µM
[9] = tested on: Progesterone receptor (Mesocricetus auratus); assay: Percent inhibition of [3H]- progesterone binding to Syrian golden hamster uterine cytosol progesterone receptor, at 10e-8 M compound concentration; settings: at 0.01 µM
[10] = molecular target: T1, Progesterone receptor (Oryctolagus cuniculus); assay: Percent inhibition of [3H]- progesterone binding to rabbit uterine progesterone receptor, at 10e-5 M compound concentration; settings: at 10 µM
[11] = molecular target: T1, Progesterone receptor (Oryctolagus cuniculus); assay: Percent inhibition of [3H]- progesterone binding to rabbit uterine progesterone receptor, at 10e-9 M compound concentration; settings: at 0.001 µM
[12] = tested on: Progesterone receptor (Mesocricetus auratus); assay: Percent inhibition of [3H]- progesterone binding to Syrian golden hamster uterine cytosol progesterone receptor, at 10e-7 M compound concentration; settings: at 0.1 µM
Cricetinae gen. sp. [13] = assay: Activity against pregnancy-interceptive activity in Syrian golden hamsters, when administered, at a dose of 9.31 mmol/kg; format: functional
Cricetinae gen. sp. [14] = assay: Activity against pregnancy-interceptive activity in Syrian golden hamsters, when administered, at a dose of 13.85 mmol/kg; format: functional
Cricetinae gen. sp. [15] = assay: Activity against pregnancy-interceptive activity in Syrian golden hamsters, when administered, at a dose of 8.40 mmol/kg; format: functional, Cricetulus griseus
Cricetinae gen. sp. [16] = assay: Activity against pregnancy-interceptive activity in Syrian golden hamsters, when administered, at a dose of 7.97 mmol/kg; format: functional, Cricetulus griseus

SMILES | inhibition [2] [%] | inhibition [3] [%] | inhibition [4] [%] | inhibition [5] [%] | inhibition [7] [%] | inhibition [8] [%] | inhibition [9] [%] | inhibition [10] [%] | inhibition [11] [%] | inhibition [12] [%] | Activity (Cricetinae gen. sp. [1]) [mean] | Activity (Cricetinae gen. sp. [6]) | Activity (Cricetinae gen. sp. [13]) | Activity (Cricetinae gen. sp. [14]) | Activity (Cricetinae gen. sp. [15]) | Activity (Cricetinae gen. sp. [16])
COC(=O)Nc1nc2cc(C3C(C(=O)OC)=C(C)N=C(C)/C3=C(/O)OC)ccc2n1Cc1ccccc1 (stereo unspecified) |  |  |  |  |  |  |  |  |  |  | 3.58 |  |  |  |  | 
COC(=O)C1=C(C)N=C(C)/C(=C(\O)OC)C1c1cc2cc(-c3c(C)oc(C)c3C(=O)OC)ccc2nc1Cl (stereo unspecified) | 17 | 10 | 20 | 0 | 5 | 5 | 10 | 8 | 0 | 9 |  |  | 1.8 |  |  | 
COC(=O)C1=C(C)N=C(C)/C(=C(\O)OC)C1c1ccc(N)c([N+](=O)[O-])c1 (stereo unspecified) | 10 | 1 | 5 | 0 | 0 | 0 | 0 | 5 | 0 | 5 |  |  |  | 7 |  | 

Further lines, with some results ahead:

inhibition [2] [%] | inhibition [3] [%] | inhibition [4] [%] | inhibition [5] [%] | inhibition [7] [%] | inhibition [8] [%] | inhibition [9] [%] | inhibition [10] [%] | inhibition [11] [%] | inhibition [12] [%] | SMILES | Activity (Cricetinae gen. sp. [1]) [mean] | Activity (Cricetinae gen. sp. [6]) | Activity (Cricetinae gen. sp. [13]) | Activity (Cricetinae gen. sp. [14]) | Activity (Cricetinae gen. sp. [15]) | Activity (Cricetinae gen. sp. [16])
34 | 26 | 31 | 10 | 9 | 16 | 13 | 36 | 4 | 15 | COC(=O)C1=C(C)N=C(C)/C(=C(/O)OC)C1c1ccc(C2C(C(=O)OC)=C(C)N=C(C)/C2=C(/O)OC)cc1 (stereo unspecified) |  | 6.2 |  |  |  | 
16 | 12 | 15 | 0 | 0 | 5 | 5 | 18 | 0 | 8 | COC(=O)C1=C(C)N=C(C)/C(=C(/O)OC)C1c1ccc2nc(-c3ccc4c(c3)OCO4)n(Cc3ccc4c(c3)OCO4)c2c1 (stereo unspecified) |  |  |  |  | 4.4 | 
16 | 10 | 10 | 0 | 2 | 8 | 5 | 8 | 0 | 5 | COC(=O)C1=C(C)N=C(C)/C(=C(/O)OC)C1c1ccc2nc(-c3ccc(OC)c(OC)c3)n(Cc3ccc(OC)c(OC)c3)c2c1 (stereo unspecified) |  |  |  |  |  | 4

From ChEMBL document CHEMBL1124351, “Syntheses and bioevaluation of substituted dihydropyridines for pregnancy-interceptive activity in hamsters” (1989)
